1 compound from patent publication US20080227813A1, “Pharmaceutical compositions and methods for treating diseases associated with neurodegeneration” (priority 2006, published 2008) can be followed below.

One series relates to CRL(:WI)BR rats. Put plainly: 28-day repeated dose oral toxicity study in rats. To be noted: for No observed adverse effect level (NOAEL): rat male and female, 28-day oral. The format is in vivo, rat. On the procedure: To assess recovery post treatment, an additional 5 males and females were included in both the control and highest dosage groups. Treatment was carried out by gavage once daily. Control animals were treated with physiologic saline in the same way.
Pre-treatment: general condition and behavior activity patterns were observed. Also in a subgroup of 5 male and 5 female animals, hematological and clinical chemistry tests were performed.
During the treatment period and following a two-week recovery period the clinical observations were made daily. At weekly intervals body weight and food consumption were measured.
At the end of the treatment, hematological, clinical chemistry evaluation and gross necropsy with organ weight assessment were conducted. […] In addition, the liver and kidneys and the organs showing macroscopic changes were examined microscopically in the low and middle dose groups, too.

The next series relates to CRL:NMRI BR mice. Briefly: Acute intravenous toxicity in mice. The series is classed as in vivo. To be noted: mouse. On the procedure:
A control and five dose groups were involved in the mouse study, at dose levels of 200 mg/kg, 250 mg/kg, 300 mg/kg, 360 mg/kg and 450 mg/kg (equal to […], 155 mg/kg, 186 mg/kg, 223 mg/kg and 279 mg/kg free base, n=5 animals/sex/group).

With `[O-][n+]1cccc(/C(Cl)=N/OC[C@H](O)CN2CCCCC2)c1` [Compound I, N-[2-hydroxy-3-(1-piperidinyl)-propoxy]-pyridine-1-oxide-3-carboximidoyl chloride], the figures for the “No observed adverse effect level (NOAEL)” value with CRL(:WI)BR rats (by base) and in the series with CRL(:WI)BR rats (by citrate) were 233 mg/kg/day and 375 mg/kg/day, respectively. In the series on CRL(:WI)BR rats (rat, 375, 750, 1500 mg/kg/day oral, 28 days), the mortality entry is “No deaths occurred”. The “Intravenous LD50 value” is on record as 158 - by base mg/kg in the series on CRL:NMRI BR mice (female, by base); 254 - by citrate mg/kg with CRL:NMRI BR mice (female, by citrate); 190 (164-223) by base mg/kg with CRL:NMRI BR mice (male, by base); 307 (265-359) by citrate mg/kg in the series with CRL:NMRI BR mice (male, by citrate).
